Assay [1] deals with human RORγt ligand binding domain (RORγt LBD) (Homo sapiens (Human), UniProt P51449). In words: RORγt ThermoFluor assay (thermal shift, binding affinity). The note with it: estimated from thermal shift concentration response. The method, then:
This approach is applicable to a wide variety of systems, and rigorous in theoretical interpretation through quantitation of equilibrium binding constants (KD).
The shift in the melting point described as a ΔTm is proportional to the concentration and affinity of the ligand.
ThermoFluor® experiments were carried out using instruments owned by Janssen Research and Discovery, L.L.C. through its acquisition of 3-Dimensional Pharmaceuticals, Inc. 1,8-ANS (Invitrogen) was used as a fluorescent dye. Protein and compound solutions are dispensed into black 384-well polypropylene PCR microplates (Abgene) and overlayed with silicone oil (1 μL, Fluka, type DC 200) to prevent evaporation.
Bar-coded assay plates are robotically loaded onto a thermostatically controlled PCR-type thermal block and then heated at a typical ramp-rate of 1° C./min for all experiments. Fluorescence was measured by continuous illumination with UV light (Hamamatsu LC6) supplied via fiber optic and filtered through a band-pass filter (380-400 nm; >60D cutoff). Fluorescence emission of the entire 384-well plate was detected by measuring light intensity using a CCD camera (Sensys, Roper Scientific) filtered to detect 500±25 nm, resulting in simultaneous and independent readings of all 384 wells. Images were collected at each temperature, and the sum of the pixel intensity in a given area of the assay plate was recorded versus temperature. Reference wells contained RORγt without compounds, and the assay conditions were as follows: • 0.065 mg/mL RORγt • 60 μM 1,8-ANS • 100 mM Hepes, pH 7.0 • 10 mM NaCl • 2.5 mM GSH • 0.002% Tween-20
Project compounds were arranged in a pre-dosed mother plate (Greiner Bio-one) wherein compounds are serially diluted in 100% DMSO by 1:2 from a high concentration of 10 mM over 12 columns within a series (column 12 is a reference well containing DMSO, no compound). The compounds were robotically dispensed directly into assay plates (1x=[…]) using a Hummingbird capillary liquid handling instrument (Digilab). Following compound dispense, protein and dye in buffer was added to achieve the final assay volume of 3 μL, followed by 1 μL of silicone oil.

Another assay addresses human RORγt LBD (Homo sapiens (Human), UniProt P51449). In words: RORγt reporter assay (GAL4-RORγt LBD luciferase, HEK293T cells). The format is cell-based. Particulars: for IC50: 24 hours compound treatment; for inhibition at 6 µM: HEK-293T, read-out: RORγt reporter Assay, % inhibition @ 6 μM, 6 μM, HEK293T cells.
The subject of assay [2] is IL-17 production by CD4 T cells. In words: Human Th17 assay. It is filed as cell-based. The note with it: Homo sapiens, CD4+ T, 72 h, IL-17 in supernatant after 3 days, human CD4+ T cells under Th17 differentiation. From the text:
The human Th17 assay tests the effect of RORγt modulatory compounds on IL-17 production by CD4 T cells under conditions which favor Th17 differentiation.
Total CD4^+ T cells were isolated from the peripheral blood mononuclear cells (PBMC) of healthy donors using a CD4^+ T cell isolation kit II, following the manufacturer's instructions (Miltenyi Biotec). Cells were resuspended in a medium of RPMI-1640 supplemented with 10% fetal bovine serum, penicillin, streptomycin, glutamate, and β-mercaptoethanol and were added to 96-well plates at 1.5×10^5 per 100 μL per well. 50 μL of compound at titrated concentrations in DMSO were added into each well at final DMSO concentration at 0.2%. Cells were incubated for 1 hour, then 50 μL of Th17 cell differentiation medium was added to each well. The final concentrations of antibodies and cytokines (R&D Systems) in differentiation medium were: 3×10^6/mL anti-CD3/CD28 beads (prepared using human T cell activation/expansion kit, Miltenyi Biotec), 10 μg/mL anti-IL4, 10 μg/mL anti-IFNγ, 10 ng/mL IL113, 10 ng/mL IL23, 50 ng/mL IL6, 3 ng/mL TGFβ and 20 U/mL IL2. Cells were cultured at 37° C. and 5% CO2 for 3 days. Supernatants were collected and the accumulated IL-17 in culture was measured by using MULTI-SPOT® Cytokine Plate following manufacture's instruction (Meso Scale Discovery). The plate was read using Sector Imager 6000, and IL-17 concentration was extrapolated from the standard curve. The IC50s were determined by GraphPad.

Several values for one entry are separate records, joined by “and”; a condition that tells them apart may be missing. Equal entries are not always repeated. Structures can show the parent of a compound that is named as a salt.

Chain of human RORγt ligand binding domain (RORγt LBD) (P51449 other isoform, or with tags, fused parts or gaps): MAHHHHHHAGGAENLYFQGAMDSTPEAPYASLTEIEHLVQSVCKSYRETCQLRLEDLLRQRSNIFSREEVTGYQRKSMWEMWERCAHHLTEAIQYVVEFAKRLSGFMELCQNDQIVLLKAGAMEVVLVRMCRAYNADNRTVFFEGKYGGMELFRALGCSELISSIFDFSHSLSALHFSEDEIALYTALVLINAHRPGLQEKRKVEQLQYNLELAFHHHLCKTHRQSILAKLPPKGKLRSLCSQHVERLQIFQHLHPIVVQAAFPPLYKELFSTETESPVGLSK
Chain of human RORγt LBD (P51449 258-518): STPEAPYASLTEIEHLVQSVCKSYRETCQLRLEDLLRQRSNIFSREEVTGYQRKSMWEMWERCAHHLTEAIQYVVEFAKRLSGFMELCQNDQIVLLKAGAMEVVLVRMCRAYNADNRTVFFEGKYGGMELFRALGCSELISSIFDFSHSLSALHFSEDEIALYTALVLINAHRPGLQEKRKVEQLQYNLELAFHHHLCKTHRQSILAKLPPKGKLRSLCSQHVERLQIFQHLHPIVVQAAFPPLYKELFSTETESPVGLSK

For `Cn1cncc1C(O)(c1ccc(C(F)(F)F)nc1)c1ccc2nc(C#N)c(Oc3ccccc3)c(C#N)c2c1` (single isomer, unassigned) [Example 22c, 6-(Hydroxy(1-methyl-1H-imidazol-5-yl)(6-(trifluoromethyl)pyridin-3-yl)methyl)-3-phenoxyquinoline-2,4-dicarbonitrile], in assay [1], the Kd is 0.097 µM. Besides, at human RORγt LBD (6 μM, HEK293T cells), the “RORγt reporter Assay, % inhibition @ 6 μM” value was 88%. On human RORγt LBD (HEK293T cells), this compound yielded an IC50 of 0.68 µM.
As for `Cn1cncc1C(O)(c1ccc(Cl)cc1)c1ccc2nc(Cl)c(Oc3ccccc3)c(Cl)c2c1` (stereo not shown) [Example 1, (4-Chlorophenyl)(2,4-dichloro-3-phenoxyquinolin-6-yl)(1-methyl-1H-imidazol-5-yl)methanol], the Kd in assay [1] was 0.11 µM. In addition, half-maximal inhibition on human RORγt LBD (HEK293T cells) (IC50) was put at 0.67 µM. The inhibition at 6 µM at human RORγt LBD is 86%.
As to `CCN(CC)c1nc2ccc(C(O)(c3ccc(Cl)cc3)c3cncn3C)cc2c(Cl)c1Oc1ccccc1` (stereo not shown) [Example 3a, (4-Chloro-2-(diethylamino)-3-phenoxyquinolin-6-yl)(4-chlorophenyl)(1-methyl-1H-imidazol-5-yl)methanol], the Kd in assay [1] was 0.059 µM. The figures for the IC50 (on human RORγt LBD (HEK293T cells); in assay [2]) were 0.12 µM and 0.2 µM, respectively. In addition, the inhibition at 6 µM at human RORγt LBD was 96%.
Take `CN(C)c1nc2ccc(C(O)(c3ccc(Cl)cc3)c3cncn3C)cc2c(Cl)c1Oc1ccccc1` (stereo not shown) [Example 16, (4-Chloro-2-(dimethylamino)-3-phenoxyquinolin-6-yl)(4-chlorophenyl)(1-methyl-1H-imidazol-5-yl)methanol]: in assay [1], the Kd is 0.031 µM. The IC50 at human RORγt LBD (HEK293T cells) came out at 0.36 µM; in assay [2], 0.1 µM. Moreover, on human RORγt LBD, the inhibition at 6 µM was determined as 94%.
In the case of `Cn1cncc1C(O)(c1ccc(Cl)cc1)c1ccc2nc(C#N)c(Oc3ccccc3)c(C#N)c2c1` (stereo not shown) [Example 20, 6-((4-chlorophenyl)(hydroxy)(1-methyl-1H-imidazol-5-yl)methyl)-3-phenoxyquinoline-2,4-dicarbonitrile.TFA], in assay [1], the Kd is 0.0057 µM. The results for the IC50 (against human RORγt LBD (HEK293T cells); in assay [2]) were 0.11 µM and 0.04 µM, respectively. In addition, the inhibition at 6 µM at human RORγt LBD is 97%.
With `Cn1cncc1C(O)(c1ccc(C(F)(F)F)nc1)c1ccc2nc(N3CCC3)c(Oc3ccc(Cl)cc3)c(Cl)c2c1` (stereo not shown) [Example 30a, (2-(Azetidin-1-yl)-4-chloro-3-(4-chlorophenoxy)quinolin-6-yl)(1-methyl-1H-imidazol-5-yl)(6-(trifluoromethyl)pyridin-3-yl)methanol], the Kd in assay [1] is 0.0018 µM. This compound yielded an IC50 against human RORγt LBD (HEK293T cells) of 0.14 µM. In addition, at human RORγt LBD, the inhibition at 6 µM is 93%.
For `CCOc1nc2ccc(C(O)(c3cccnc3)c3cccc(Cl)c3)cc2c(Cl)c1N(C)c1ccccc1` (stereo not shown) [Example 36, (4-Chloro-2-ethoxy-3-(methyl(phenyl)amino)quinolin-6-yl)(3-chlorophenyl) (pyridin-3-yl)methanol.TFA], in assay [1], the Kd is 0.032 µM. Besides, the IC50 was determined as 0.089 µM against human RORγt LBD (HEK293T cells) and 0.16 µM in assay [2]. In addition, the inhibition at 6 µM at human RORγt LBD came out at 89%.
In the case of `CN(c1ccccc1)c1c(Cl)nc2ccc(C(O)(c3ccc(Cl)cc3)c3cncn3C)cc2c1Cl` (stereo not shown) [Example 38, (4-Chlorophenyl)(2,4-dichloro-3-(methyl(phenyl)amino)quinolin-6-yl)(1-methyl-1H-imidazol-5-yl)methanol], the Kd in assay [1] was 0.035 µM. For the same compound, the IC50 against human RORγt LBD (HEK293T cells) is 0.52 µM and ~1 µM. Besides, at human RORγt LBD, the inhibition at 6 µM is 85%.
Turning to `CCN(CC)c1nc2ccc(C(O)(c3ccc(Cl)cc3)c3cncn3C)cc2c(Cl)c1Nc1ccccc1` (stereo not shown) [Example 45, (4-Chloro-2-(diethylamino)-3-(phenylamino)quinolin-6-yl)(4-chlorophenyl)(1-methyl-1H-imidazol-5-yl)methanol.TFA], the Kd in assay [1] was 0.27 µM. Further, the IC50 against human RORγt LBD (HEK293T cells) turned out to be 0.81 µM. Also, on human RORγt LBD, the inhibition at 6 µM turned out to be 91%.

The values are drawn from patent publication US9303015B2, “Heteroaryl linked quinolinyl modulators of RORγt” (Janssen Pharmaceutica NV, priority 2012, dated 2016).
